From patent US20020183357A1, “Use of alpha- 1- alpha adrenoceptor agonists with alpha-1-Beta antagonism for the treatment of stress urinary incontinence” (priority 2000, published 2002)
Read-outs that look alike come from different tables or passages of the source.

Tests used:
[1] = target: T1, α1D adrenoceptor subtype (rat aorta) (Rattus norvegicus, UniProt P23944); assay: Rat aorta tissue bath, agonism; conditions: for α1D efficacy: percent of phenylephrine (100%) contraction
T1 sequence (P23944 1-561): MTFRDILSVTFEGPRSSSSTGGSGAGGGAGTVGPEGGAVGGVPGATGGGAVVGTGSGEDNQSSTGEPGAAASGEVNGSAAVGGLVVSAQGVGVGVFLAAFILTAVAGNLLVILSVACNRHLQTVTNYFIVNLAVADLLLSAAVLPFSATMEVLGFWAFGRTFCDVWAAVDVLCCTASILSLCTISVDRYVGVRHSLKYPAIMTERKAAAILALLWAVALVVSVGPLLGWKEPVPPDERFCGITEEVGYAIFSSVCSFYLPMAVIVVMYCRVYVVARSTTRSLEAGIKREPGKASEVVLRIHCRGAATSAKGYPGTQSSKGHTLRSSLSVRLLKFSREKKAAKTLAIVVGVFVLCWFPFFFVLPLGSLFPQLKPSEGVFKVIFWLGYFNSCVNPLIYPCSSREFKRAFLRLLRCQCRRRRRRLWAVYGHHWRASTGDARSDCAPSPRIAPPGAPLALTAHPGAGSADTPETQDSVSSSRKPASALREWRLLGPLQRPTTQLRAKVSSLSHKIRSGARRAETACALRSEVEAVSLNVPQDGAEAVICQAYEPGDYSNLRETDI
Source text: (§1) Quantitative analysis of agonist and antagonist action is the basis of receptor classification and drug design. […] The interaction of an agonist with a receptor may be characterized by two quantities, affinity and efficacy. These quantities can be estimated by generating two concentration response curves and fitting the data to a four parameter curve smoothing routine. The first curve is a reference standard followed by a thorough rinsing and a second curve generated using the test agent. […] Agonist potency (pD2) is expressed as the negative log10 of the EC50. The efficacy is determined by comparing the maximum value of the test agent to the maximum value of the reference agent and expressed as a % of maximum response.
(§2) A cumulative concentration protocol was employed. […] Br. J. Pharmacol. 14, 48-58.

[2] = target: T2, α1A adrenoceptor subtype (rabbit urethra) (Oryctolagus cuniculus, UniProt O02824); assay: Rabbit urethra tissue bath, agonism; conditions: for α1A efficacy: percent of phenylephrine (100%) contraction
T2 sequence (O02824 1-466): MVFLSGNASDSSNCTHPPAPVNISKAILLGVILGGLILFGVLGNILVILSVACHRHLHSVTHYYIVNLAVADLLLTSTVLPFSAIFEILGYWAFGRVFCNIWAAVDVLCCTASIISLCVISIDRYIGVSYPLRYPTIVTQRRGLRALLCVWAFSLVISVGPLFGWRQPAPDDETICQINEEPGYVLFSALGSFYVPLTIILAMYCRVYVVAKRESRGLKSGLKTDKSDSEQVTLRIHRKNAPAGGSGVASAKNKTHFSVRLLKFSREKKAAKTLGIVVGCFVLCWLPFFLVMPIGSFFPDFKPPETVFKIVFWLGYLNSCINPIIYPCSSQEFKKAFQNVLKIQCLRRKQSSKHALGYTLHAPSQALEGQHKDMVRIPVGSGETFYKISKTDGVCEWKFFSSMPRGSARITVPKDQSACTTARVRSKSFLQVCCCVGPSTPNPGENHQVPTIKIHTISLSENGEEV
Source text: as §1, §2
The efficacy of the compounds are compared as a percent of phenylephrine (100%) contraction.

[3] = for IUP ED5 mmHg: dose producing 5 mmHg increase in IUP; for Selectivity ratio MAP ED20/IUP ED5: calculated for each dog and then averaged
Source text: Intraurethral Pressure in Dogs (IUP-MAP test)
Female Beagle dogs (Marshall Farms, North Rose, N.Y.) greater that 2 years of age and weighing between 12 and 15 kg were used in these studies. At least 2 weeks prior to any agonist dosing, dogs were instrumented for the chronic measurement of arterial blood pressure by implanting a telemetry transducer/transmitter (TA11PA-C40, Data Sciences International, St. Paul, Minn.) into a carotid artery.
On the test day, dogs fasted since the previous afternoon were pre-anesthetized with thiopental sodium 15 mg/kg i.v. (Pentothal™, Abbott) and intubated. Anesthesia was maintained by allowing the dog to spontaneously breathe a mixture of isoflurane (2.5 to 3 volume %) and oxygen delivered by a Narkomed Standard anesthesia system (North American Drager, Telford, Pa.). An Abbocath-T™ i.v. catheter (18-G, Abbott Laboratories, Abbott Park, Ill.) was inserted into the cephalic vein for the administration of agonists. A telemetry receiver (RA1310, DataSciences) was placed under the head of each dog and was interfaced to a computerized data acquisition system (Modular Instruments Inc.(MI2), Malvern, Pa.) which allowed for the continuous calibrated recording of arterial blood pressure which was electronically filtered to determine its mean value (MAP).
Briefly, a 7 Fr catheter balloon catheter (41224-01, Abbott) was inserted into the urethral orifice and advanced approximately 15 cm until the tip was well inside the bladder. The balloon was then inflated with 1 ml of room air and the catheter slowly withdrawn until resistance (corresponding to the bladder neck) was evident. The balloon was then deflated and the catheter withdrawn an additional 2 cm. The balloon was then reinflated and its catheter port connected to a Gould Statham P23Dd pressure transducer interfaced to a computerized data acquisition system (Modular Instruments, Inc., Malvern, Pa.) for the measurement of intraurethral pressure (IUP). The MAP and IUP pressor responses to increasing iv doses of test agonists were obtained simultaneously. The pressor effects of each dose were allowed to return to baseline before the next dose was given.
The dose required to elicit significant and clinically meaningful changes in IUP (5 mm Hg) relative to the dose required to elicit a physiologically significant increase in blood pressure (20 mm Hg) is calculated.
IUP and MAP pressor effects of each agonist dose were expressed as the maximum net change in each pressure over pre-dose baseline levels. Subsequently, the effective doses required to produce a 5 mmHg increase in IUP (IUP ED5mmHg) and a 20 mmHg increase in MAP (MAP ED20mmHg) were estimated from the dose response data from each dog. Relative urethral versus vascular selectivity of each agonist in each dog was estimated using a ratio of these respective potency indices (MAP ED20mmHg/IUP ED5mmHg).
Data are expressed as means (±S.E.M) and all doses are in nmol/kg, i.v.

[4] = target: T3, α1B adrenoceptor subtype (rat spleen) (Rattus norvegicus, UniProt P15823); assay: Rat spleen tissue bath, agonism; set-up: The spleen was split longitudinally into two preparations per rat; from tissue; host or cells: rat spleen
T3 sequence (P15823 1-515): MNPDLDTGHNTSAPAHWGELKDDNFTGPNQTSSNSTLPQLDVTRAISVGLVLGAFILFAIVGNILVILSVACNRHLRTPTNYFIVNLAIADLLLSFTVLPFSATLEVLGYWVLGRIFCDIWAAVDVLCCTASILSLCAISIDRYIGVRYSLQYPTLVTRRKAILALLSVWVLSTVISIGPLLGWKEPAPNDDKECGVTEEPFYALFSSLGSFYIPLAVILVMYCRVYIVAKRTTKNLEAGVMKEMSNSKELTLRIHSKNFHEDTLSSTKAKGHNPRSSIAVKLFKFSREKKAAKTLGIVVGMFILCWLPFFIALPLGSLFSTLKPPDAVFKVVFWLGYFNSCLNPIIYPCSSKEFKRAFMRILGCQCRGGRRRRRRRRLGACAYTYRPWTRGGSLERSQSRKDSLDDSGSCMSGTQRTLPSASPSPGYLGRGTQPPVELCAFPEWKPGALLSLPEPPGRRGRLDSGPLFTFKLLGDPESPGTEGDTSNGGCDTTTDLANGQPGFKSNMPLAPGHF
Source text: as §1, §2
(§3) The spleen was split longitudinally into two preparations per rat.

[5] = target: T1, α1D adrenoceptor subtype (rat aorta)
Source text: (§4) The interaction of an antagonist with a receptor can be characterized by an affinity constant, pA2. The affinity unit, pA2, can be defined as negative logarithm to base 10 of the molar concentration of antagonist drug that will reduce the effect of the reference agonist by 50%. […] The fractional increase in agonist concentration required to overcome the effects of the antagonist should be independent of the agonist concentration. Secondly, the affinity of the antagonist should be independent of concentration, therefore the Schild plot should have a slope of unity. Thirdly, the antagonist affinity should be independent of the agonist used.
(§5) The urethra was removed with the urinary bladder and immediately placed into Krebs Ringer bicarbonate solution with the following mM concentrations: 120 NaCl, 18.0 NaHCO3, 11.0 dextrose, 4.7 KCl, 2.5 CaCl2, 1.5 MgSO4, 1.2 KH2PO4 and equilibrated with 5% CO2:95% O2. The pH was adjusted to 7.2 at 25° C. by titrating with a saturated solution of NaHCO3. The pH increased to 7.4 at 37° C. Propranolol (0.004 mM) was included in all of the assays to block β-adrenoceptors. […] One end was fixed to a stationary glass rod and the other to a Grass FT03 transducer at a basal preload of 1.0 g of tension. Data was recorded on a Grass model-7 polygraph. Tissues were rinsed every 10 minutes for a total of 45-60 minutes. The urethra was primed once with 80 mM KCl, rinsed to basal tension and again with 10 μM phenylephrine (PE). After an additional 60 minute equilibration period a reference concentration response curve was generated for each tissue using PE as the reference agonist. A cumulative concentration protocol was employed. Following a 75 minute washout period a second response curve was then generated in the same fashion using the test agent. The amount of agent necessary to cause a 50% response (ED50) was calculated using “AGANTG” (Zielinski, P. J., Buckner, S. A. (1998). AGANTG: A Microsoft Excel 5.0-visual basic routine for the analysis of dose-response data. Analyst. 123, 1661-1668), a four parameter curve fitting program similar to “Allfit” (DeLean, A., Munson, P. J., Rodbard, D. (1980). Simultaneous analysis of families of sigmoidal curves: application to bioassay, radioligand assay, and physiological dose-response curves. Am. J. Physiol. 235, E97-102). Agonist potencies were indexed to PE and expressed as the negative logarithm (pD2). Each tissue was used for only one test agonist. For antagonists, the test agent was allowed a 30 minute exposure time before a second PE curve was started. The potency, expressed as a pA2, was calculated according to the method of Arunlakshana, O., Schild, H. O. (1959), Some quantitative uses of drug antagonists. […] The individual tissues were exposed to only one concentration of the test antagonist. The regression lines of the Schild plots were analyzed using least squares regression (Snedecor, G. W., Cochran, W. G., (1980). In Statistical methods, 7th edition, Iowa State University Press, Ames, Iowa).
(§6) Male Sprague Dawley rats (350-450 g) were sedated with CO2 and decapitated. The entire thoracic aorta was removed and immediately placed into Krebs Ringer bicarbonate solution as described above. The aorta was cleaned of extraneous tissue and the endothelium removed by passing a 100 mm length of PE-160 tubing through the lumen. The aorta was cut into 3-4 mm rings and mounted in 10 ml isolated tissue baths at 37° C.

[6] = target: T3, α1B adrenoceptor subtype (rat spleen); conditions: for type of antagonism at α1B: based on slope and regression (r) of Schild plot; for α1B r (regression of Schild plot) / α1B slope (Schild plot): rat spleen
Source text: as §2, §3

[7] = target: T1, α1D adrenoceptor subtype (rat aorta); conditions: for type of antagonism at α1D: based on slope and regression (r) of Schild plot; for α1D r (regression of Schild plot) / α1D slope (Schild plot): rat aorta
Source text: as §4, §5, §6

[8] = target: T4, α1A adrenoceptor (rat submaxillary gland) (Rattus norvegicus, UniProt P43140); assay: Radioligand binding, α1A (rat submaxillary gland), [3H]-prazosin
T4 construct: α1A (rat submaxillary gland); from tissue; host or cells: rat submaxillary gland
T4 sequence (P43140 1-466): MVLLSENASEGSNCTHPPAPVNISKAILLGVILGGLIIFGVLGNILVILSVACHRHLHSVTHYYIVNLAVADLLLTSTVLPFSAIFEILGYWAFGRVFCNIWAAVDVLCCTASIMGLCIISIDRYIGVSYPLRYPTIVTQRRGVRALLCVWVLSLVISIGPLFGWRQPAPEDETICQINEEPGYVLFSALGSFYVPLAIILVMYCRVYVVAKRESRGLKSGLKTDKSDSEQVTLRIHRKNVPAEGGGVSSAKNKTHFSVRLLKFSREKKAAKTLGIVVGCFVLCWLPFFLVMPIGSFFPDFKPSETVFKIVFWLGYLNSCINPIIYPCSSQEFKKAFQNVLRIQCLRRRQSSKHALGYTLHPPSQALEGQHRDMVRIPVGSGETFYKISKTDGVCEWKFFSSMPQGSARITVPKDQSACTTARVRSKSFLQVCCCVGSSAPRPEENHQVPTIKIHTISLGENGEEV

[9] = target: T5, α1d adrenoceptor (rat receptor expressed in mouse fibroblasts) (Rattus norvegicus, UniProt P23944); assay: Radioligand binding, α1d (rat receptor expressed in mouse fibroblasts), [3H]-prazosin
T5 construct: expressed in transfected cells; host or cells: mouse fibroblasts
T5 sequence (P23944 1-561): T1 sequence (P23944 1-561)

[10] = target: T6, α1b adrenoceptor (hamster receptor expressed in mouse fibroblasts) (Mesocricetus auratus, UniProt P18841); assay: Radioligand binding, α1b (hamster receptor expressed in mouse fibroblasts), [3H]-prazosin
T6 construct: expressed in transfected cells; host or cells: mouse fibroblasts
T6 sequence (P18841 1-515): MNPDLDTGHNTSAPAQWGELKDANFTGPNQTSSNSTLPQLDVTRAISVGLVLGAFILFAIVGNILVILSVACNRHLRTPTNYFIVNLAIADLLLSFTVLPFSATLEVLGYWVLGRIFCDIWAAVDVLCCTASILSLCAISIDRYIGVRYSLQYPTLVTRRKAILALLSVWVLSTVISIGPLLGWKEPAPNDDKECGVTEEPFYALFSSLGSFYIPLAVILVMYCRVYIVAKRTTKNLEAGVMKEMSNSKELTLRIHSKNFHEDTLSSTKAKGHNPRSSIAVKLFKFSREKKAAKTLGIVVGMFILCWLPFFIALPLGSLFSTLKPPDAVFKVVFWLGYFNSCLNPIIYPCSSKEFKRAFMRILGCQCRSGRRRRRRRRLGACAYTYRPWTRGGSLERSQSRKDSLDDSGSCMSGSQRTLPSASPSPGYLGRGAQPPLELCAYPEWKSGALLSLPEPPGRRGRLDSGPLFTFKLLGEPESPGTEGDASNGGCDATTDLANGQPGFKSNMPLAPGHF

[11] = i.v., anesthetized female Beagle dogs, mean ± S.E.M.
[12] = i.v., anesthetized female Beagle dogs, dose producing 20 mmHg increase in MAP, mean ± S.E.M.

SMILES | α1D efficacy [1] [%] | α1A efficacy [2] [%] | IUP ED5 mmHg [3, 11] [nmol/kg] | α1B pD2 ([4]; agonist potency) | Kb [5] [µM] | α1D pD2 ([1]; agonist potency) | Kb [6] [µM] | type of antagonism at α1B [6] | α1B r (regression of Schild plot) [6] | α1B slope (Schild plot) [6] | Selectivity ratio MAP ED20/IUP ED5 [3] | MAP ED20 mmHg [3, 12] [nmol/kg] | type of antagonism at α1D [7] | α1D r (regression of Schild plot) [7] | α1D slope (Schild plot) [7] | further results
CS(=O)(=O)Nc1c(O)ccc2c1CCCC2C1=NCCN1 (centres unmarked) [Compound A-61603, reference compound] | 100 | 88 | 0.16 ± 0.02 |  |  |  |  |  |  |  |  |  |  |  |  | MAP ED20 mmHg ([3]; female, Beagle, dog, in vivo, iv): 0.27 ± 0.05 nmol/kg
CCS(=O)(=O)Nc1cccc(Cc2c[nH]cn2)c1C [Compound A-286569] |  | 69 | 41.9 ± 6.2 | inactive | 6.31 | inactive | 15.8 | non-competitive antagonist | 0.6 | 1.3 | 5.6 | 201.6 ± 67 | non-competitive antagonist | 0.5 | 1.1 | 
CCS(=O)(=O)Nc1cccc(Cc2c[nH]cn2)c1 [Compound A-286666] |  | 80 |  | inactive | 0.316 | inactive | 1.58 | competitive antagonist | 0.9 | 0.81 |  |  | competitive antagonist | 0.9 | 0.93 | 
C[C@@H](N)[C@H](O)c1ccccc1 [PPA, phenylpropanolamine] | 91 | 68 | 1092 ± 384 |  |  |  |  |  |  |  | 0.4 | 331 ± 80 |  |  |  | EC50 ([4]; agonist potency, read-out: α1B pD2 (converted)): 251 µM; α1B efficacy ([4]; percent of phenylephrine (100%) contraction): 34%; Ki [8]: > 10 µM; EC50 ([1]; agonist potency, read-out: α1D pD2 (converted)): 63.1 µM; Ki [9]: > 10 µM; EC50 ([2]; agonist potency, negative log of EC50, read-out: α1A pD2 (converted)): 200 µM; Ki [10]: > 10 µM
